Test results: paper PMC11358443, “Polymodal K^+ channel modulation contributes to dual analgesic and anti-inflammatory actions of traditional botanical medicines” (Communications Biology, 2024)
“And” between values parts separate entries of the source, which are not always exact repeats. Identical values can stand only once.

Assays:
Type in all cases: cell-based
Kv1.3 Mutant 1 = Kv1.3 Mutant 1 (Homo sapiens, UniProt P22001, D423E/G427Q/P424R/S429P/T425E); test: TEVC electrophysiology, oocytes expressing Kv1.3 Mutant 1 (Kv1.2 turret loop residues)
From the text: To test whether the predicted different binding poses of tannic acid to Kv1.2 and Kv1.3 could explain the contrasting functional effects on these two channels, we made three mutant forms of Kv1.3, introducing Kv1.2 residues into the Kv1.3 turret loop (Mutant 1), pore helix (Mutant 2) and selectivity filter-S6 linker (Mutant 3) (Fig. 9A, B). Mutant 2 was nonfunctional (Fig. 9C); the single residue in this mutant was inaccessible to tannic acid as it was deep inside the pore and was not predicted therefore to interact with tannic acid (Fig. 8).
We generated human potassium channel cRNA transcripts with the mMessage mMachine kit (Thermo Fisher Scientific, Waltham, MA, USA) according to manufacturer’s instructions, after vector linearization, from cDNA sub-cloned into expression vectors (pTLNx, pXOOM and pMAX). We injected Xenopus laevis oocytes (Xenoocyte, Dexter, MI, USA) with the channel cRNAs (0.5–10 ng) and incubated the oocytes at 16 °C for 1–4 days prior to electrophysiological recording.
We performed TEVC at 20–23 °C with an OC-725C amplifier (Warner Instruments, Hamden, CT, USA) and pClamp10 software. Chemicals for recording and oocyte storage solutions were from Sigma-Aldrich (St. Louis, MO). Bath solution contained (in mM): 96 NaCl, 4 KCl, 1 MgCl2, 1 CaCl2, 10 HEPES (pH 7.6). Pipettes were 1–2 MΩ resistance when filled with 3 M KCl. We recorded currents in response to voltage pulses between −120 mV or −80 mV and +40 mV at 10 mV intervals from a holding potential of −80 mV, to yield current–voltage relationships and examine activation kinetics. We recorded and analyzed data using Clampfit (Molecular Devices, Sunnyvale, CA, USA) and Graphpad Prism software (GraphPad, San Diego, CA, USA), stating values as mean ± SEM. We calculated the voltage dependence of activation (V0.5) by measuring tail currents at a voltage pulse of −30 mV (Kv7) or −50 mV (Kv1), then fitted the tail current/voltage relationship with a single Boltzmann function:1 g=(A1−A2)/{1+exp[V1/2−V/Vs]}y+A2 where g is the normalized tail conductance, A1 is the initial value at −∞, A2 is the final value at +∞, V1/2 is the half-maximal voltage of activation and Vs the slope factor. We fitted activation and deactivation kinetics with single exponential functions.
For wild-type and mutant Kv1.3 channels we calculated conductance–voltage curves from current–voltage relationships recorded in response to voltage pulses between −80 mV to +40 mV in 10 mV intervals from a holding potential of −80 mV. The conductance was calculated by subtracting the driving force (EK):2 Ek=xlnK^+i/K^+o

human CD4 T cells = test: Human CD4 T cell proliferation assay (CFSE dilution, viability dye); conditions: 96 h
From the text: Whole blood from de-identified healthy donors, from whom informed consent was obtained, was obtained from the Institute for Clinical and Translational Science (ICTS) research Blood Donor Program at the University of California, Irvine approved and reviewed by the Institutional Review Boards of UCI (IRB protocol HS #2001-2058). All ethical regulations relevant to human research participants were followed. Peripheral blood mononuclear cells (PBMC) were isolated by density gradient separation using lymphocyte separation media (Corning, Cat# 25-072-CV) and SepMate tubes (STEMCELL Technologies, Cat# 85450). Blood was first diluted (1:3) in phosphate-buffered saline (PBS) containing 2% fetal bovine serum (FPS), then overlaid on top of lymphocyte separation media (2:1). CD4+ T cells were isolated from PBMCs using magnetic separation (EasySep Human CD4+ T cell isolation kit, STEMCELL Technologies, Cat# 17952), post isolation purity is typically >95% based on CD4 and CD3 staining. Purified CD4^+ T cells were labeled with 1.6 µM of CellTrace CFSE in AIM V Serum-Free Medium (Gibco Cat# 12055-083) for 8 min[84]. CFSE labeled CD4 T cells were stimulated with anti-CD3- and anti-CD28-coated Dynabeads (Thermo Fisher Scientific, Cat# 111310) at 1:1 ratio in a round-bottom 96-well plate at 37 °C and 5% CO2 in the dark for 96 h in T cell culture medium (RPMI with 10% FCS, L-glutamine, non-essential amino acids, sodium pyruvate, β-mercaptoethanol and penn–strep with amphotericin B). On day 4 cells were stained with Fixable Viability Dye eFluor 780 (FVD-780, Thermo Fisher Scientific, Cat# 65-0865-14) in PBS for 20 min at 4 °C to identify dead cells. Cells were then washed with 1× PBS + 1% FBS twice and transferred to a round-bottom 96-deep well plate (Greiner, Cat# 07-000-119) for flow cytometry. Fluorescence intensity data were acquired using NovoCyte Quanteon (Agilent Technologies) flow cytometer. FSC files were used for gating and analysis using FlowJo analysis software (FlowJo LLC, Ashland, OR). […]

[1] = target: native Kv1.3 current in activated human T-cells (Homo sapiens, UniProt P22001); test: Patch-clamp of native Kv1.3 current in activated human T-cells; conditions: approximation, underestimate of potency (saturation incomplete); read-out: IC50 for human T-cell Kv1.3 current
native Kv1.3 current in activated human T-cells, sequence (P22001 whole entry): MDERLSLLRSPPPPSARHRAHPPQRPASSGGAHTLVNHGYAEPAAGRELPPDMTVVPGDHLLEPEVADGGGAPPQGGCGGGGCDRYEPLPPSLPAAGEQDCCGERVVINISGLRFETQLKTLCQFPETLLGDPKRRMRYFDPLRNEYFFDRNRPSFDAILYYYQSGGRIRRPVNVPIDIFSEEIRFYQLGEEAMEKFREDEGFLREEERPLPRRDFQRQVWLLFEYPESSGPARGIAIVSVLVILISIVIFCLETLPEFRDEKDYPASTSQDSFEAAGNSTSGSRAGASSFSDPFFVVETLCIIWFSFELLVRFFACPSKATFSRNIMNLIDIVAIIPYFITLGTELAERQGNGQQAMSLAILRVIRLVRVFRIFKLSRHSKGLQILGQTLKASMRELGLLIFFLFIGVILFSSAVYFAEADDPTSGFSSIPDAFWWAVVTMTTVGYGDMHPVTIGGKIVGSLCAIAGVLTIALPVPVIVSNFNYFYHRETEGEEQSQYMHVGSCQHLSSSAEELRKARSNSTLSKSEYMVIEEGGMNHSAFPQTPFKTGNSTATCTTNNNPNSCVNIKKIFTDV
Method: Human CD4+ T cells from frozen PBMCs ([sequence] Technologies) were isolated with EasySep negative isolation kit ([sequence] Technologies, cat. #17952) according to manufacturers’ protocols. After isolation cells were plated on anti-CD3 (BioLegend, clone OKT3, 2.5 μg/ml), anti-CD28 (BioLegend, clone CD28.2, 2.5 μg/ml)-coated 6-well plate dish at 1.5 × 10^6 cells/well in 3 ml RPMI medium (Gibco) supplemented with 10% FBS (Omega Scientific), 1% L-glutamine (Gibco), 1% non-essential amino acids (Gibco), 1% sodium pyruvate (Gibco), 1% penicillin–streptomycin–amphotericin B (Gibco) and 50 µM, β-mercaptoethanol (Sigma), 30 U/ml recombinant human IL-2 (BioLegend, cat. #589102). Cells were incubated during 48–144 h in 5% CO2 + 95% O2 atmosphere at 37 °C, harvested and plated on poly-lysine coated coverslips; 30–60 min later cells were used in the experiment.
We performed patch clamp experiments at 20–23 °C, acquiring data with an EPC9 patch clamp amplifier (HEKA), a 5 kHz sampling rate and digitally filtering at 1–2 kHz. […] The Kv1.3 currents were recorded in response to 600 ms step pulse from holding potential −80 mV to +40 mV acquired every 30 s. […] The recorded currents were analyzed with Patch Master (HEKA Electronics) and Origin Pro (Origin Lab).

Kv1.3 Mutant 1, sequence (P22001 whole entry D423E/P424R/T425E/G427Q/S429P): as the sequence (P22001 whole entry) above, with D423E, P424R, T425E, G427Q, S429P counted along it

tannic acid
Slope (Kv1.3 Mutant 1; 0.1 µM tannic acid, control 3.97 ± 0.40): 5.16 ± 0.56 mV
Current at 0 (mV) (Kv1.3 Mutant 1; 0.1 µM tannic acid, control 4.66 ± 1.27): 5.24 ± 0.91
V0.5 Normalized tail current (Kv1.3 Mutant 1; 0.1 µM tannic acid, control -14.75 ± 3.06): -20.05 ± 2.13 mV
Current at 0 (mV) (Kv1.3 Mutant 1; 1 µM tannic acid): 5.37 ± 0.63
Slope (Kv1.3 Mutant 1; 1 µM tannic acid): 4.97 ± 0.53 mV
V0.5 Normalized tail current (Kv1.3 Mutant 1; 1 µM tannic acid): -24.05 ± 2.18 mV
Current at 0 (mV) (Kv1.3 Mutant 1; 3 µM tannic acid): 4.93 ± 0.57
Slope (Kv1.3 Mutant 1; 3 µM tannic acid): 5.05 ± 0.28 mV
V0.5 Normalized tail current (Kv1.3 Mutant 1; 3 µM tannic acid): -27.01 ± 1.83 mV
Current at 0 (mV) (Kv1.3 Mutant 1; 10 µM tannic acid): 4.01 ± 0.41
Slope (Kv1.3 Mutant 1; 10 µM tannic acid): 5.33 ± 0.20 mV
V0.5 Normalized tail current (Kv1.3 Mutant 1; 10 µM tannic acid): -27.63 ± 1.98 mV
Current at 0 (mV) (Kv1.3 Mutant 1; 30 µM tannic acid): 2.18 ± 0.24
Slope (Kv1.3 Mutant 1; 30 µM tannic acid): 5.94 ± 0.30 mV
V0.5 Normalized tail current (Kv1.3 Mutant 1; 30 µM tannic acid): -24.82 ± 2.70 mV
Current at 0 (mV) (Kv1.3 Mutant 1; 100 µM tannic acid): 1.15 ± 0.14
Slope (Kv1.3 Mutant 1; 100 µM tannic acid): 6.41 ± 0.42 mV
V0.5 Normalized tail current (Kv1.3 Mutant 1; 100 µM tannic acid): -19.79 ± 4.83 mV
reduction of tannic acid sensitivity versus wild-type Kv1.3 (Kv1.3 Mutant 1; inhibition dose response): threefold
LD50 (viability dose–response) (human CD4 T cells; mean of 9 donors): 87 µM
IC50 for limiting T cell proliferation (division index) (human CD4 T cells; CD3/CD28 Dynabead stimulation, 10% FCS): 35 µM and 35.03 µM
cell viability (human CD4 T cells; at 50 µM): 76.96 ± 8.922%
IC50 [1]: 3.3 ± 0.2 µM
